One assay deals with Dd2 strain of P. falciparum. The experiment in a line: Activity against the Dd2 strain of P. falciparum (SYBR Green I, 72-h incubation). The format is cell-based. To be noted: Plasmodium falciparum, DD2, 72 h, read-out: EC^50 Dd2. Here is the method: The Dd2 strain of P. falciparum was cultured in complete medium (RPMI with L-glutamine, 4.3% heat-inactivated O-positive human serum, 2.08 mg/ml albumax, 0.013 mg/ml hypoxanthine, 1.17 mg/ml glucose, 0.18% NaHCO3, 0.031 M Hepes, 2.60 mM NaOH, and 0.043 mg/ml gentamicin) until the parasitemia reached 3-8%. Parasitemia was determined by checking at least 500 red blood cells from a Giemsa-stained blood smear. The Dd2 cultures along with tested O-positive red blood cells are centrifuged at room temperature at 2,000 rpm for 5 min using an Eppendorf centrifuge 581 OR with an A-4-81 rotor. The medium was aspirated off. For the compound screening, a parasite dilution at a 1% parasitemia and 1.0% hematocrit was created with screening medium (RPMI with L-glutamine, 4.16 mg/ml albumax II, 0.013 mg/ml hypoxanthine, 1.73 mg/ml glucose, 0.18% NaHCO3, 0.031M Hepes, 2.60 mM NaOH, and 0.043 mg/ml gentamicin). The suspension was gassed with 93% nitrogen, 4% carbon dioxide, and 3% oxygen and placed at 37° C. until needed. Using a liquid dispenser, 20 μl of screening medium was dispensed into 384-well, black, clear-bottom plates. With a PinTool, 100 nl of compounds dissolved in DMSO was transferred into the assay plates along with control compound (mefloquine). Next, 30 μl of the parasite suspension in screening medium was then dispensed into the assay plates such that the final parasitemia was 1%, and the final hematocrit was 1.0%. Final concentration of DMSO was 0.125%. Mefloquine at a final concentration of 20 μM and DMSO at a final concentration of 0.125% were used within the assay plates to serve as background and baseline controls, respectively. The assay plates were transferred to incubators (93% nitrogen, 4% carbon dioxide, and 3% oxygen during the 72-h incubation at 37° C.). Ten microliters of detection reagent consisting of 1 OX SYBR Green I (Invitrogen; supplied in 10,000× concentration) in lysis buffer (20 mM Tris-HCl, 5 mM EDTA, 0.16% Saponin wt/vol, 1.6% Triton X vol/vol) was dispensed into the assay plates. For optimal staining, the assay plates were left at room temperature for 24 h in the dark. The assay plates were read by using an Envision (PerkinElmer) reader, with 505 dichroic mirrors with 485-nm excitation and 530-nm emission settings, and the plate reads were from the bottom.
Consider `COc1ccc2c3c([nH]c2c1)[C@H](CO)N(C(=O)C(C)(C)C)CC31CCN(C(=O)Nc2ccccc2F)CC1` [Compound 23, (R)-N-(2-fluorophenyl)-1′-(hydroxymethyl)-7′-methoxy-2'-pivaloyl-1′,2′,3′,9′-tetrahydrospiro[piperidine-4,4′-pyrido[3,4-b]indole]-1-carboxamide], for which the EC50 turned out to be 2400 nM.
The same measure, in the same setting: the same measure for `COc1ccc2c3c([nH]c2c1)[C@H](CO[Si](C)(C)C(C)(C)C)N(C(C)=O)CC31CCN(C(=O)OC(C)(C)C)CC1` [Compound 24, (R)-tert-butyl 2′-acety1-1′-(((tert-butyldimethylsilyl)oxy)methyl)-7′-methoxy-1′,2′,3′,9′-tetrahydrospiro [piperidine-4,4′-pyrido[3,4-b]indole]-1-carboxylate]: 1240 nM; for `COc1ccc2c3c([nH]c2c1)[C@H](CO[Si](C)(C)C(C)(C)C)N(C(C)=O)CC31CCNCC1` [Compound 25, (R)-1-(1′-(((tert-butyldimethylsilyl)oxy)methyl)-7′-methoxyspiro[piperidine-4,4′-pyrido[3,4-b]indol]-2′(1′H,3′H,9′H)-yl)ethanone]: 1620 nM; for `COc1ccc2c3c([nH]c2c1)[C@H](CO)NCC31CCN(C(=O)Nc2ccccc2F)CC1` [Compound 26, (R)-N-(2-fluorophenyl)-1′-(hydroxymethyl)-7′-methoxy-1′,2′,3′,9′-tetrahydrospiro [piperidine-4,4′-pyrido[3,4-b]indole]-1-carboxamide]: 1330 nM.
Take `COc1ccc2c3c([nH]c2c1)[C@H](CO)N(C(C)=O)CC31CCN(CCc2ccccc2F)CC1` [Compound 27, (R)-1-(1-(2-fluorophenethyl)-1′-(hydroxymethyl)-7′-methoxyspiro[piperidine-4,4′-pyrido[3,4-b]indol]-2′(1′H,3′H,9′H)-yl) ethanone]: the EC50 stood at 2730 nM.
On to `C=CCOC(=O)N1CC2(CCN(C(=O)Oc3ccc([N+](=O)[O-])cc3)CC2)c2c([nH]c3cc(OC)ccc23)[C@@H]1CO` [Compound 28, (R)-2′-allyl 1-(4-nitrophenyl) 1′-(hydroxymethyl)-7′-methoxy-3′,9′-dihydrospiro[piperidine-4,4′-pyrido[3,4-b]indole]-1,2′(1′H)-dicarboxylate], for which the EC50 amounted to 7140 nM.
Still for that read-out and setting: the result for `COc1ccc2c3c([nH]c2c1)[C@H](C)NCC31CCN(C(=O)OC(C)(C)C)CC1` [Compound 30, (S)-tert-butyl 7′-methoxy-1′-methyl-1′,2′,3′,9′-tetrahydrospiro[piperidine-4,4′-pyrido[3,4-b]indole]-1-carboxylate] reads 7440 nM; that for `COc1ccc2c3c([nH]c2c1)[C@H](CN(C)C)N(C(C)=O)CC31CCN(C(=O)Nc2ccccc2F)CC1` [Compound 32, (S)-2′-acetyl-1′-((dimethylamino)methyl)-N-(2-fluoropheny1)-7′-methoxy-1′,2′,3′,9′-tetrahydrospiro[piperidine-4,4′-pyrido[3,4-b]indole]-1-carboxamide], 485 nM; that for `COc1ccc2c3c([nH]c2c1)[C@H](CO)N(C(=O)C1CC1)CC31CCN(C(=O)Nc2ccccc2F)CC1` [Compound 33, (R)-2′-(cyclopropanecarbonyl)-N-(2-fluorophenyl)-1′-(hydroxymethyl)-7′-methoxy-1′,2′,3′,9′-tetrahydrospiro[piperidine-4,4′-pyrido[3,4-b]indole]-1-carboxamide], 2980 nM.

The same assay, now with this note: read-out: EC^50 Dd2.
Regarding `COc1ccc2c3c([nH]c2c1)[C@H](CO[Si](C)(C)C(C)(C)C)N(C(C)=O)CC31CCN(C(=O)OC(C)(C)C)CC1` [Compound 29, (R)-tert-butyl 2′-acetyl-1′-(((tert-butyldimethylsilyl)oxy)methyl)-7′-methoxy-1′,2′,3′,9′-tetrahydrospiro[piperidine-4,4′-pyrido[3,4-b]indole]-1-carboxylate], the EC50 was 1390 nM.

Source of the values: patent publication US9428507B2, “Compounds for the treatment of malaria” (The Broad Institute, Inc., priority 2013, dated 2016).
